Results on one compound are retold here after paper PMC7970304, “The Effects of Apelin and Elabela Ligands on Apelin Receptor Distinct Signaling Profiles” (Frontiers in Pharmacology, 2021).

Experiment [1] concerns the target T1, APJ (Apelin receptor) (Homo sapiens, UniProt P35414).
T1 sequence (P35414 1-380): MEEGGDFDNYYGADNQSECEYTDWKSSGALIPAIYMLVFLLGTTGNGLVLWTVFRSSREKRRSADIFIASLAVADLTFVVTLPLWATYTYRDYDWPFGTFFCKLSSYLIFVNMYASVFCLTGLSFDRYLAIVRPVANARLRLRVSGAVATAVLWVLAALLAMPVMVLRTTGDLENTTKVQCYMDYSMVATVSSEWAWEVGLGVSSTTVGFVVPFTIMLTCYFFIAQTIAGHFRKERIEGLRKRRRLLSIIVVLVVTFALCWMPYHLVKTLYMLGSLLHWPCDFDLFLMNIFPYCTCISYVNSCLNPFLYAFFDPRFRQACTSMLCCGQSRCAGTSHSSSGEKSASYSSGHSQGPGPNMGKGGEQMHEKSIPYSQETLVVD
In words: Analysis of ligand bias across APJ pathways. It counts as cell-based. More on the design: APJ membrane preparations were obtained from transiently transfected HEK293 cells; host or cells: HEK293 cells, transiently transfected; membranes prepared. As to conditions: reference ligand Apelin-13, reference pathway calcium release. On the procedure:
The concentration-response data for the ligands in various assays were analyzed to determine the biases of the ligands for G protein dependent signaling or β-arrestin dependent signaling, according to a previously published method ([Kenakin et al., 2012]; [Hager et al., 2016]; [Hothersall et al., 2017]). Briefly, the concentration-response data for each ligand were fitted to the Black-Leff operation model to obtain the values of τ and K A, using the following equation: Response=[[…] where [A] is the concentration of the agonist, E m is the maximal response of the system, n is the transducer slope, and K A and τ describe the affinity and efficacy of the agonist, respectively. In the data fitting, the reparametrized form of the equation proposed by [Kenakin et al. (2012)] was used: Response=[…]β2} where β 1 and β 2 are the natural logarithm of K A and τ, respectively, and E m was set to 1. […] The ΔΔlog (τ/K A), or Log (Bias), which is the logarithm of the bias factor for a given pathway over a reference pathway (here, intracellular calcium release), was calculated for each ligand as Δlog (τ/K A)-Δlog (τ/K A)Calcium. The 95% confidence interval (CI) was expressed as the mean ± standard error; Log (Bias) values, whose 95% CI crosses 0, were considered statistically insignificant.

Experiment [2] addresses T1, APJ (Apelin receptor). In words: Radioligand competition binding assay, [125I]-apelin-13, HEK-293/APJ membranes. On the set-up: APJ membrane preparations were obtained from transiently transfected HEK293 cells; host or cells: HEK293 cells, transiently transfected; membranes prepared. The following applies: [125I]-apelin-13 competition. In general terms: Displacement assays read how much labelled ligand stays bound in the presence of the test substance.
Protocol: APJ membrane preparations were obtained from transiently transfected HEK293 cells. HEK293 cells were cultured in complete DMEM (DMEM plus 10% FBS) for 24 h, until they reached at least 70% confluence. Transfection reagent containing 20 μg of the APJ expression plasmid was added, and the cells were incubated for another 24 h. The cells were then harvested into 25 ml homogenization buffer (HB) [250 mM sucrose and 25 mM HEPES (pH 7.3); adjusted to pH 7.5 at 4°C and then filtered] supplemented with 250 μL phenylmethylsulfonyl fluoride (PMSF), homogenized using an IKA T25 Ultra Turrax (24,000 rpm), and centrifuged at 6,025 rpm for 15 min at 4°C. […]
The binding reaction was stopped by rapid filtration through polyethyleneimine (PEI)-coated GF/B plates using a cell harvester, and the plates were washed three times with ice-cold wash buffer [50 mM HEPES (pH 7.4), 500 mM NaCl, and 0.1% BSA; filtered and stored at 4°C]. The filtration plates were dried at 37°C for 2 h; 50 μL scintillation cocktail (Perkin Elmer, Wellesley, MA, United States), was added to each well; and the radioactivity was measured using a Perkin Elmer 1450 MicroBeta TriLux Microplate Scintillation and Luminescence Counter.
The binding reaction was stopped, the plates were washed and dried, the scintillation cocktail was added, and the radioactivity was measured as described above.

A further experiment concerns the target APJ. More on the design: method as in Couvineau et al., 2020. As to conditions: displacement of 125I-pE13F; ref Couvineau et al., 2020; cited from earlier work.

“Also recorded” adds a separate entry of the source.

What is called pKi is the negative decadic logarithm of the Ki, by convention in mol/L. Turning to `CSCC[C@H](NC(=O)[C@@H]1CSSC[C@H](NC(=O)[C@H](CC(N)=O)NC(=O)[C@H](Cc2c[nH]cn2)NC(=O)[C@H](CCCCN)NC(=O)[C@H](CCCNC(=N)N)NC(=O)[C@@H](N)CC(C)C)C(=O)N[C@@H](CC(C)C)C(=O)N[C@@H](CCC(N)=O)C(=O)N[C@@H](CCCNC(=N)N)C(=O)N[C@@H](CCCNC(=N)N)C(=O)N1)C(=O)N1CCC[C@H]1C(=O)N[C@@H](CC(C)C)C(=O)N[C@@H](Cc1c[nH]cn1)C(=O)N[C@@H](CO)C(=O)N[C@@H](CCCNC(=N)N)C(=O)N[C@H](C(=O)N1CCC[C@H]1C(=O)N[C@@H](Cc1ccccc1)C(=O)N1CCC[C@H]1C(=O)O)C(C)C` [Elabela-21], the “signaling bias profile (in words)” value on APJ (Apelin receptor) [1] was “much stronger activity on the cAMP pathway; also recorded: weaker activity; also recorded: very weak effects on β-arrestin dependent pathways”. Moreover, the “binding affinity (in words)” value at APJ (Apelin receptor) [2] is listed as “slightly weaker binding affinity than Elabela-32”. On APJ, the pKi is on record as 9.49.
